From patent US9932637B2, “Genetic polymorphisms associated with cardiovascular disorders and drug response, methods of detection and uses thereof” (CELERA CORPORATION, priority 2003, dated 2018)

System: patients with prior myocardial infarction (CARE study)
Experiment: CARE: association of SNPs with pravastatin treatment in cardiovascular events prevention (logistic regression, odds ratio pravastatin vs placebo by genotype; Table 8)
Assay type: in vivo, human
Conditions: for Fatal CHD/Definite Nonfatal MI, n/total (%) / Fatal/Nonfatal MI (def & prob), n/total (%) / MI (Fatal/Nonfatal), n/total (%) / Nonfatal MI (Probable/Definite), n/total (%) / Nonfatal MI (def & prob), n/total (%): GAPD hCV8921288, All Patients
Excerpt: In order to identify genetic markers associated with acute coronary events (e.g. MI, stroke, unstable angina, congestive heart failure, etc.) or response to statin treatment for the prevention of coronary events, samples from the Cholesterol and Recurrent Events (CARE) study (a randomized multicentral double-blinded trial on secondary prevention of acute coronary events with pravastatin) (Sacks et al., 1991, Am. J. Cardiol. 68: 1436-1446) were genotyped. A well-documented myocardial infarction (MI) was one of the enrollment criteria for entry into the CARE study. Patients were enrolled in the CARE trial from 80 participating study centers. […] Patients were randomized to receive either 40 mg of pravastatin once daily or a matching placebo. The primary endpoint of the trial was death from coronary heart disease and the median duration of follow-up was 5.0 years (range, 4.0 to 6.2 years). […] Secondary endpoints of other related cardiovascular or metabolic disease events, and changes in clinical variables were also recorded in pravastatin-treated and placebo groups. All individuals included in the study had signed a written informed consent form and the study protocol was approved by the respective Institutional Review Boards (IRBs).
For genotyping SNPs in CARE patient samples, DNA was extracted from blood samples using conventional DNA extraction methods such as the QIA-amp kit from Qiagen. Genotypes were obtained on an ABI PRISM® 7900HT Sequence Detection PCR system (Applied Biosystems, Foster City, Calif.) by kinetic allele-specific PCR, similar to the method described by Germer et al. (Germer S., Holland M. J., Higuchi R. 2000, Genome Res. 10: 258-266).
Statistical analysis for association of SNPs with pravastatin treatment in cardiovascular events prevention (Table 8) was carried out using an overall logistic regression model that included an intercept, a parameter for the effect of a genotype containing two rare alleles versus a genotype containing no rare alleles, a parameter for the effect of a genotype containing one rare allele versus a genotype containing no rare alleles, a parameter for the effect of use of pravastatin versus the use of placebo, and parameters for the interaction effects between SNP genotypes and pravastatin use. The test of the overall model is a chi-square test with two degrees of freedom for analyses containing all three genotypes, and one degree of freedom for analyses containing two genotypes.
Effect sizes were estimated through odds ratios (pravastatin group versus placebo) for carriers of each genotype (groups of 0, 1, and 2 minor allele carriers). The effect was considered to be significant if p-value for testing whether any of the interactions between SNP genotypes and pravastatin use were <0.05. […] Odds ratios less than one indicate that the specific SNP allele has a protective effect and odds ratios greater than one indicate that the specific SNP allele has an adverse effect.

[1] = ELN hCV1253630, All Patients, Fatal CHD/Definite Non-fatal MI
[2] = ELN hCV1253630, All Patients, Fatal/Non-fatal MI (def & prob)
[3] = ELN hCV1253630, All Patients, Hosp. for Cardiovascular Disease
[4] = ELN hCV1253630, All Patients, Non-fatal MI (def & prob)
[5] = ELN hCV1253630, All Patients, Total Cardiovascular Disease Events
[6] = ELN hCV1253630, All Patients, Total Coronary Heart Disease Events
[7] = FCGR2A hCV9077561, All Patients, 0 Rare Alleles, Prava arm
[8] = FCGR2A hCV9077561, All Patients, 1 Rare Allele, Prava arm
[9] = FCGR2A hCV9077561, All Patients, 2 Rare Alleles, Prava arm
[10] = HLA-DPA1 hCV15760070, All Patients, Coronary Artery Bypass or Revascularization
[11] = HLA-DPA1 hCV15760070, All Patients, Total Coronary Heart Disease Events

CC[C@H](C)C(=O)O[C@H]1C[C@H](O)C=C2C=C[C@H](C)[C@H](CC[C@@H](O)C[C@@H](O)CC(=O)O)[C@H]21 [pravastatin]
Fatal CHD/Definite Non-fatal MI, n/total (%) (ELN hCV1253630, All Patients, 2 Rare Alleles, Prava, n/total 29/245): (11.8%) | Non-fatal MI (def & prob), n/total (%) (ELN hCV1253630, All Patients, 2 Rare Alleles, Prava, n/total 30/245): (12.2%) | Fatal/Non-fatal MI (def & prob), n/total (%) (ELN hCV1253630, All Patients, 2 Rare Alleles, Prava, n/total 33/245): (13.5%) | Total Coronary Heart Disease Events, n/total (%) (ELN hCV1253630, All Patients, 2 Rare Alleles, Prava, n/total 88/245): (35.9%) | Hosp. for Cardiovascular Disease, n/total (%) (ELN hCV1253630, All Patients, 2 Rare Alleles, Prava, n/total 113/245): (46.1%) | Total Cardiovascular Disease Events, n/total (%) (ELN hCV1253630, All Patients, 2 Rare Alleles, Prava, n/total 115/245): (46.9%) | Prava vs. Placebo Odds Ratio, 0 Rare Alleles [1]: 0.50 | Prava vs. Placebo Odds Ratio, 1 Rare Alleles [1]: 0.75 | Prava vs. Placebo Odds Ratio, 2 Rare Alleles [1]: 1.41 | Prava vs. Placebo Odds Ratio, 0 Rare Alleles [2]: 0.44 | Prava vs. Placebo Odds Ratio, 1 Rare Alleles [2]: 0.68 | Prava vs. Placebo Odds Ratio, 2 Rare Alleles [2]: 1.63 | Prava vs. Placebo Odds Ratio, 0 Rare Alleles [3]: 0.63 | Prava vs. Placebo Odds Ratio, 1 Rare Alleles [3]: 0.76 | Prava vs. Placebo Odds Ratio, 2 Rare Alleles [3]: 1.15 | Prava vs. Placebo Odds Ratio, 0 Rare Alleles [4]: 0.50 | Prava vs. Placebo Odds Ratio, 1 Rare Alleles [4]: 0.67 | Prava vs. Placebo Odds Ratio, 2 Rare Alleles [4]: 1.63 | Prava vs. Placebo Odds Ratio, 0 Rare Alleles [5]: 0.63 | Prava vs. Placebo Odds Ratio, 1 Rare Alleles [5]: 0.75 | Prava vs. Placebo Odds Ratio, 2 Rare Alleles [5]: 1.11 | Prava vs. Placebo Odds Ratio, 0 Rare Alleles [6]: 0.66 | Prava vs. Placebo Odds Ratio, 1 Rare Alleles [6]: 0.73 | Prava vs. Placebo Odds Ratio, 2 Rare Alleles [6]: 1.26 | Catheterization, n/total (%) [7]: (11.6%) | Coronary Artery Bypass or Revascularization, n/total (%) [7]: (16.1%) | Catheterization, n/total (%) [8]: (11.2%) | Coronary Artery Bypass or Revascularization, n/total (%) [8]: (14.8%) | Catheterization, n/total (%) [9]: (6.8%) | Coronary Artery Bypass or Revascularization, n/total (%) [9]: (11.8%) | Fatal CHD/Definite Nonfatal MI, n/total (%) (0 Rare Alleles, Prava arm): (10.5%) | Fatal/Nonfatal MI (def & prob), n/total (%) (0 Rare Alleles, Prava arm): (10.6%) | MI (Fatal/Nonfatal), n/total (%) (0 Rare Alleles, Prava arm): (10.9%) | Nonfatal MI (Probable/Definite), n/total (%) (0 Rare Alleles, Prava arm): (10.3%) | Nonfatal MI (def & prob), n/total (%) (0 Rare Alleles, Prava arm): (9.9%) | Fatal CHD/Definite Nonfatal MI, n/total (%) (1 Rare Allele, Prava arm): (7.4%) | Fatal/Nonfatal MI (def & prob), n/total (%) (1 Rare Allele, Prava arm): (8.7%) | MI (Fatal/Nonfatal), n/total (%) (1 Rare Allele, Prava arm): (8.7%) | Nonfatal MI (Probable/Definite), n/total (%) (1 Rare Allele, Prava arm): (8.1%) | Nonfatal MI (def & prob), n/total (%) (1 Rare Allele, Prava arm): (7.6%) | Fatal CHD/Definite Nonfatal MI, n/total (%) (2 Rare Alleles, Prava arm): (8.1%) | Fatal/Nonfatal MI (def & prob), n/total (%) (2 Rare Alleles, Prava arm): (6.5%) | MI (Fatal/Nonfatal), n/total (%) (2 Rare Alleles, Prava arm): (6.5%) | Nonfatal MI (Probable/Definite), n/total (%) (2 Rare Alleles, Prava arm): (6.5%) | Nonfatal MI (def & prob), n/total (%) (2 Rare Alleles, Prava arm): (4.8%) | Coronary Artery Bypass or Revascularization, n/total (%) (HLA-DPA1 hCV15760070, All Patients, 0 Rare Alleles, Prava, n/total 143/1019): (14.0%) | Total Coronary Heart Disease Events, n/total (%) (HLA-DPA1 hCV15760070, All Patients, 0 Rare Alleles, Prava, n/total 285/1019): (28.0%) | Coronary Artery Bypass or Revascularization, n/total (%) (HLA-DPA1 hCV15760070, All Patients, 1 Rare Allele, Prava, n/total 67/443): (15.1%) | Total Coronary Heart Disease Events, n/total (%) (HLA-DPA1 hCV15760070, All Patients, 1 Rare Allele, Prava, n/total 136/443): (30.7%) | Coronary Artery Bypass or Revascularization, n/total (%) (HLA-DPA1 hCV15760070, All Patients, 2 Rare Alleles, Prava, n/total 9/52): (17.3%) | Total Coronary Heart Disease Events, n/total (%) (HLA-DPA1 hCV15760070, All Patients, 2 Rare Alleles, Prava, n/total 21/52): (40.4%) | Prava vs. Placebo Odds Ratio, 0 Rare Alleles [10]: 0.65 | Prava vs. Placebo Odds Ratio, 1 Rare Alleles [10]: 0.71 | Prava vs. Placebo Odds Ratio, 2 Rare Alleles [10]: 5.65 | Prava vs. Placebo Odds Ratio, 0 Rare Alleles [11]: 0.69 | Prava vs. Placebo Odds Ratio, 1 Rare Alleles [11]: 0.86 | Prava vs. Placebo Odds Ratio, 2 Rare Alleles [11]: 2.48 | Fatal/Non-fatal MI (def & prob), n/total (%) (HLA-DPB1 hCV8851085, All Patients, 0 Rare Alleles, Prava, n/total 82/919): (8.9%)
